Test results as given in patent US20030157072A1, “Nusap, a novel gene encoding a tissue-specific nuclear protein, useful as a diagnostic tool and therapeutic agent” (priority 2003, published 2003).

What was measured:
[1] = tested on: mouse osteoblastic MC3T3-E1 cells; assay: [3H]-thymidine incorporation, proliferation of MC3T3-E1 cells; type: cell-based; conditions: varying doses, 24 and 48 h, versus vehicle
Description: (a) The proliferation of MC3T3-E1 cells was analyzed after treatment for 24 and 48 h with varying doses of 1,25(OH)2D3 by monitoring [^3H]-thymidine incorporation. Data represent mean±SD of six replicates of a representative experiment. Values of vehicle (ethanol) treated cells were taken as 100%. (*P<0.001; versus vehicle, t test) All culture reagents, unless otherwise mentioned, were obtained from GIBCO BRL (Life Technologies, Grand Island, N.Y.). Murine osteoblast-like MC3T3-E1 cells (Sudo et al. (1983). J. Cell Biol. 96:191-198) were purchased from Riken Cell Bank (H. Kodama, Japan), and maintained in αMEM supplemented with 10% heat-inactivated FCS and penicillin-streptomycin (100 U/ml and […], respectively). Sub-confluent MC3T3-E1 cell cultures are defined to be in the proliferation state, while confluent and mineralising cells have entered the differentiation stage. COS-1 and NIH3T3 cells (American Type Culture Collection, Manassas, Va.) were cultured respectively in Dulbecco's modified eagle medium (hereinafter DME) and DME-F12, plus 10% heat-inactivated FCS. For NIH3T3 cells, the medium was supplemented with glutamax (2 mM) and glucose (4.5 g/l). Cultures were grown at 37° C. in a humidified atmosphere containing 5% CO2 in air. […] Significant effects were already observed after 24 hours and this inhibition became more pronounced with increasing time. […]

nusap gene expression = assay: Northern analysis of nusap gene expression in MC3T3-E1 cells; type: cell-based, mouse
Description: FIG. 2 represents a Northern blot analysis showing nusap gene expression in sub-confluent cultures of MC3T3-E1 cells after treatment with vehicle or 1,25(OH)2D3 (10^−8 M) for 24 hours. The size (kb) of the three transcripts is indicated.
(§1) Northern blot analysis of nusap expression in hydroxyurea treated (1 mM) MC3T3-E1 cells. Cells were harvested at the indicated time points (minutes) after treatment. The different cell cycle phases were assigned based on the RNA levels of histone H4, a S-phase marker. The blots were hybridized with the following cDNA probes: human histone H4, pFO002; and a 0.8 kb NuSAP BglII/AspI restriction fragment. The 18S cDNA probe was used as a control to assess equal loading.
(§2) Growth arrest of MC3T3-E1 cells by serum starvation was accomplished by changing complete medium (10% FCS) to medium containing 0.1% FCS in subconfluent cultures. The quiescent cells were released from growth arrest by adding complete medium (10% FCS), whereafter cells were harvested at the indicated time points.
(§3) Total cellular RNA was extracted from cell cultures using TriZol LS. Foetal mice and soft tissues from adult mice (C57BL/6; 8 wk old) were directly homogenized in TriZol (GIBCO BRL), while femurs and tibias were ground to a fine powder prior to homogenization, followed by total cellular RNA extraction. […]

[2] = tested on: DNA synthesis (BrdUrd incorporation); assay: BrdUrd immunostaining in transfected COS-1 cells; type: cell-based; conditions: 20 μg/ml for several hours
Description: […] […] C is the merger of A and B. In some cells, BrdUrd incorporation is distinctly aggregated (E), and these sites overlap with NuSAP-GFP (D) and F (which is the merger of D and E).
Alternatively, cells were fixed and permeabilized in 0.4% glutaraldehyde/0.5% Triton X100/PBS for 15 minutes at room temperature. After incubation in 0.5 mg NaBH4/ml PBS (10 minutes), and blocking in 5% BSA/PBS (10 minutes), cells were incubated with primary antibodies for 1 h. Cells were washed and after incubation with 50% normal serum (Dako) (10 minutes), cells were incubated with secondary antibodies conjugated to Alexa-488 or -546 dye (Molecular Probes) (1 hour) and finally mounted using Dako mounting medium. Antibodies and normal serum were diluted in 0.5% Tween20/PBS. Analysis was done on a Nikon inverted microscope Diaphot 300 (Plan Apo 60/1.40 oil) connected to a Bio-Rad MRC1024 confocal microscope and images were captured by LaserSharp (version 3.2) and processed using Adobe Photoshop 5.5 (Adobe Systems Inc., San Jose Calif.). The images showing a-tubulin localization were taken using a Leitz DM microscope and were recorded using a cooled charge-coupled device camera (Photometrics Inc., Tucson, Ariz.) and IP-Lab software. […]

[3] = tested on: histone H4 gene expression; assay: Northern analysis of histone H4 RNA levels in MC3T3-E1 cells; type: cell-based, mouse; conditions: 1 mM, within 45 minutes of treatment
Description: as §1, §2, §3

[4] = tested on: microtubules (α-tubulin) / GFP-tagged NuSAP; assay: Immunofluorescence localization of GFP-tagged NuSAP in transfected COS-1 cells; conditions: for distribution of NuSAP in the nucleoli during interphase: COS-1 cells in interphase; for distribution of NuSAP and α-tubulin in mitotic cells: mitotic COS-1 cells, nocodazole 10 μM for 1 hour, taxol 5 μM for 1 hour

C=C1/C(=C\C=C2/CCC[C@]3(C)[C@@H]([C@H](C)CCCC(C)(C)O)CC[C@@H]23)C[C@@H](O)C[C@@H]1O [1α,25(OH)2D3, 1α,25-dihydroxyvitamin D3]
proliferation measured by [3H]-thymidine incorporation [1]: inhibited the proliferation of these cells | nusap gene expression (Northern analysis) (nusap gene expression; sub-confluent MC3T3-E1 cells, 10^-8 M for 24 hours versus vehicle): inhibition of nusap gene expression

C[C@@]1(CO)[C@H](O)CC[C@@]2(C)[C@H]1CC[C@H]1C[C@@H]3C[C@@]12CC[C@]3(O)CO [aphidicolin]
immunostaining for BrdUrd [2]: loss of immunostaining for BrdUrd

NC(=O)NO [hydroxyurea]
nusap gene expression (RNA level) (nusap gene expression; MC3T3-E1 cells, 1 mM, within 45 minutes of treatment): markedly down-regulated | histone H4 RNA levels [3]: undetectable

COC(=O)Nc1nc2ccc(C(=O)c3cccs3)cc2[nH]1 [nocodazole]
distribution of NuSAP in the nucleoli during interphase [4]: Neither nocodazole nor taxol treatment affected | distribution of NuSAP and α-tubulin in mitotic cells [4]: NuSAP and α-tubulin redistributed throughout the cell

CC(=O)O[C@H]1C(=O)[C@@]2(C)[C@H]([C@H](OC(=O)c3ccccc3)[C@]3(O)C[C@H](OC(=O)[C@H](O)[C@@H](NC(=O)c4ccccc4)c4ccccc4)C(C)=C1C3(C)C)[C@]1(OC(C)=O)CO[C@@H]1C[C@@H]2O [taxol]
distribution of NuSAP in the nucleoli during interphase [4]: Neither nocodazole nor taxol treatment affected | distribution of NuSAP and α-tubulin in mitotic cells [4]: resulted in NuSAPs translocation to these structures
